Reference: patent publication US8106092B2, “Treatment of solid cancers” (priority 2004, dated 2012)

Assays:
B16 tumors = experiment: Example 4: i.t. PEP005 on RHS primary B16 tumor with or without DC+IL-2, growth of LHS secondary tumor; type: in vivo, C57BL/6 mice
Description: It has previously been established that PEP005-mediated curing of primary tumors can lead to the reduction secondary tumors in a B16-OVA lung metastasis and a s.c. Lewis lung-OVA model. These studies were extended (i) using a model where the model antigen ovalbumin is absent, (ii) using a system where both primary and secondary tumors are established before treatment initiation and (iii) using DC therapy combined with PEP005-mediated curing of primaries, to determine whether the two treatments can improve the anti-cancer effect on the secondary tumors.
[…], three groups of C57BL/6 mice were inoculated with 1×10^5 B16 s.c. on the right hand side of the back (RHS) and 2×10^4 s.c. on the left hand side of the back (LHS). A fourth group (Group 4) received only 2×10^4 s.c. on the left hand side of the back (LHS). On d0. the groups were given the following treatments:
PEP005 RHS: The larger RHS tumors were treated intra-tumorally with 25 μg PEP005 in 50 μl of 5% w/v DMSO in RPMI 1640 supplemented with HEPES 10 mM.
PEP005 RHS+DC+IL-2: The large RHS tumors were treated as for Group 1 plus the animals received on d0 DC2.4 cells (i) activated with LPS (for 3 hr incubation at 37° C. using 1 μg/ml E. coli 055:B5, Sigma), (ii) sensitized with TRP-2 peptide, SVYDFFVWL [SEQ ID NO:1] (30 μg/ml 2 hr, 37° C.), (iii) irradiated (5000 rads), washed and then injected i.v. (4×10^6/mouse iv) on d0. The animals also received rhIL-2 at 5×10^4 IU given twice daily per mouse from d0 to d4 i.p.
CONT TREAT RHS: Mock treatment group; the larger RHS tumors were treated intra-tumorally with 50 μl of 5% w/v DMSO in RPMI1640 supplemented with HEPES 10 mM.
NO RHS: This group had no RHS tumor and received no treatment.

B16-OVA tumors = experiment: PEP005-mediated cure of primaries plus DC therapy, growth of secondary tumors, s.c. B16-OVA model; type: in vivo, C57BL/6 mice; settings: Log rank p<0.001 (PEP005) and =0.002 (DC)
Protocol: FIGS. 13A to C are graphical representations showing synergistic effects between PEP005-mediated cure of primaries and DC therapy on the growth of secondary tumors and on CD8^+ T-cell induction. (A) On d−3 C57BL/6 mice where inoculated with 2×10^6 B16-OVA cells on the right flank (primary tumor) and 2×10^4 B16-OVA cells on the left flank (secondary tumor). On d0 and d1 the primary B16-OVA tumors, which has reach 30.4 mm^2+SD6 were cured with i.t. injections of 25 μg of PEP005 formulated in PEG400. On d4 and d11 mice received DC therapy using DC2.4 cells pulsed with SVYDFFVWL [SEQ ID NO:1], KVPRNQDWL [SEQ ID NO:4] and SIINFEKL [SEQ ID NO:2] peptides, and ovalbumin (n=12, PEP005+DC). […] Animal groups were established and treated as in (A) except that on d12 mice were sacrificed and splenocytes analyzed in an ex vivo ELISPOT assay for responses to SVYDFFVWL [SEQ ID NO:1], KVPRNQDWL [SEQ ID NO:4] and SIINFEKL [SEQ ID NO:2] […]
To determine whether the immunostimulatory activity of PEP005-mediated cure of primary tumors would synergize with DC therapy to reduce growth of secondaries, four groups of C57BL/6 mice were established using the s.c. B16-OVA model. […] The growth of secondary tumors was monitored over time.

In the case of `C/C=C(/C)C(=O)O[C@H]1C(C)=C[C@]23C(=O)[C@@H](C=C(CO)[C@@H](O)[C@]12O)[C@H]1[C@@H](C[C@H]3C)C1(C)C` [PEP005, ingenol-3-angelate], the “tolerability of i.t. treatment” value (B16 tumors; 25 μg PEP005 in 50 μl of 5% w/v DMSO in RPMI 1640, i.t.) is reported as “not well tolerated”, the “RHS (primary) tumors successfully cured” value (B16 tumors; i.t. 25 μg PEP005 on d0) is reported as 5/6 and the “mice dying shortly after i.t. treatment” value (B16 tumors; in each of Group 1 and 2 (n=7 each), PEP005 using DMSO) is reported as “one”. The “survival (deaths due to growth of LHS tumor) vs NO RHS group” value (B16 tumors; mouse, in vivo) was “behaved essentially identically”, the “growth of LHS (secondary) tumor d5 to d11 vs NO RHS” value (B16 tumors; p=0.042) was “slower” and the “growth of secondaries vs no treatment controls” value (B16-OVA tumors) was “significantly reduced the growth of secondaries”.
